Measurements as given in EP1406920B1, “NOVEL CHROMOGENIC SUBSTANCES AND USE THEREOF FOR THE DETERMINATION OF CARBOXYPEPTIDASE ACTIVITIES” (Diagnostica Stago, priority 2001, dated 2003).

How the values were obtained:
Type in all cases: biochemical
[1] = biological target: T1, TAFI purifié (Homo sapiens, UniProt Q96IY4); assay: Colorimetric TAFI activity assay on purified TAFI with different substrates (thrombin/thrombomodulin activation, carboxypeptidase A revelation); settings: substrate 5 mM; 6,5 µg/ml TAFI purifié in hépès buffer; read at 320-350 nm
T1 sequence (Q96IY4 115-423): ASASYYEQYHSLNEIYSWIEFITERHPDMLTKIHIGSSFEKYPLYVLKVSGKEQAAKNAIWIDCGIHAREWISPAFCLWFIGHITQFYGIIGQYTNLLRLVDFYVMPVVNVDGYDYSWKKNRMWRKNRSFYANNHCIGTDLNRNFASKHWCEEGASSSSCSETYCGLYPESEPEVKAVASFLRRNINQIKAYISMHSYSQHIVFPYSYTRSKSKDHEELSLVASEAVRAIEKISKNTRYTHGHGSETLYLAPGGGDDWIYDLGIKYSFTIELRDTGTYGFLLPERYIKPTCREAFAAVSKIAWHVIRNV

[2] = biological target: T1, TAFI purifié; assay: Specificity test on purified TAFI solution: MxAFR versus MxPAFFK; settings: for DO de départ / DO finale / Delta DO: TAFI purifié 18 µg/ml, activated, MxAFR 27 mM without CPA, MxPAFFK with CPA added, 382 nm; for hydrolyse par le TAFI activé: conclusion in words, purified TAFI 18 µg/ml
Excerpt: 2. La méthode de l'invention est ensuite appliquée sur une solution de TAFI purifiée, soit avec un substrat de formule (I) (MxPAFFK), soit avec le MxAFR pour vérifier que le TAFIa hydrolyse néanmoins un composé de formule (I). L'activation de la coagulation est déclenchée par le complexe thrombine-thrombomoduline-CaCl2 (voir protocole exemple 2). La diminution de coloration de chacun des deux échantillons est suivie au spectrophotomètre. • a) échantillons de départ : solution de TAFI purifié à18 µg/ml (dilué dans tampon hépès). • b) activation de la coagulation. • c) addition de MxAFR 27 mM ou MxPAFFK (témoin) concentration du MxAFFK. • d) addition de CPA dans l'échantillon contenant le MxPAFFK. • e) lecture DO à 382 nm.

[3] = biological target: T1, TAFI purifié; assay: Calibration range, thrombin/thrombomodulin method, TAFI-deficient plasma spiked with purified TAFI; settings: substrate 5 mM
Experimental: L'échantillon de plasma testé est divisé en deux aliquotes, l'un étant additionné de PIC (Calbiochem - Réf. 217359), l'autre de tampon hépès. Les deux aliquotes sont ensuite traités de manière identique selon le principe suivant :
• 150 µl de plasma dilué au 1/20 en tampon hépès (ou TAFI purifié à 13 µg/ml en tampon hépès. • 10 µl PIC ou H2O • 5 minutes à température ambiante • 150 µl tampon activateur de la coagulation • 10 minutes à température ambiante • 100 µl PPACK + 100 µl MxPAFFR (substrat) (5 mM)
• 30 minutes à température ambiante • 100 µl HCl 1M + 100 µl NaOH 1M
• Dilution au 1/3 en tampon hépès • Lecture de la DO à 382 nm • 25 µl Carboxypeptidase A • Lecture de la DO à 382 nm sur 1 minute
La figure 3 ci-après représente une courbe d'étalonnage établie à partir d'un plasma déficient en TAFI surchargé avec du TAFI purifié pour obtenir une gamme de concentration en TAFI allant de 0 à 26 µg/ml. Le composé de formule I utilisé est le MxPAAFR à une concentration de 5 mM. Les Δ DO mesurés selon la méthode de l'invention sont reportés dans le tableau III suivant : TABLEAU III : […]

[4] = tested on: carboxypeptidase B pancréatique porcine; assay: Decoloration of single-amino-acid substrate AAFR by pancreatic carboxypeptidase B; settings: CPB porcine 5,2 mol/l in hépès buffer; AAFR 5 mM (0,25 mM); 382 nm
Excerpt: (§1) L'exemple ci-après vise à démontrer la nécessité d'utiliser la méthode et les composés de formule (I) de l'invention pour doser spécifiquement l'activité des CPN ou U, en particulier le TAFI, par rapport à d'autres carboxypeptidases basiques. 1. Le dosage est dans ce cas réalisé avec un substrat de la famille de composés décrites par Mock dans (14). Ce substrat est constitué d'un seul acide aminé porteur du radical chromophore anizylazoformyl (portion CH3OC6H4-N = N-CO-). L'acide aminé choisi est l'arginine, un acide aminé basique normalement hydrolysé par les carboxypeptidases B (1). Ce substrat est dénommé ci-après AAFR (AnizylAzoFormyArginine) ou MxAFR (4-MethoxyphenylAzoformylarginine). Ce substrat (0,25 mM) est mis en présence soit d'un échantillon de TAFI plasmatique, soit d'une solution de carboxypeptidase B pancréatique porcine (Sigma - Réf. C9584) à 5,2 mol/l. La diminution de coloration de chacun des deux échantillons est suivie au spectrophotomètre. Chacun des échantillons est traité selon le protocole suivant : • a) échantillon de départ : • TAFI plasmatique (présent dans un pool normal de plasmas - dilué au 1/20) ou • Carboxypeptidase B pancréatique porcine 5,2 mol/l (dans tampon hépès) • b) activation avec complexe thrombine-thrombomoduline-CaCl2 (voir exemple 2) pour l'échantillon de TAFI plasmatique. • c) addition de AAFR à 5 mM. • d) lecture DO à 382 nm.

[5] = biological target: T2, TAFI plasmatique (Homo sapiens, UniProt Q96IY4); assay: Decoloration of single-amino-acid substrate AAFR by activated plasma TAFI
T2 construct: from tissue; host or cells: normal plasma pool, diluted 1/20
T2 sequence (Q96IY4 115-423): T1 sequence (Q96IY4 115-423)
Excerpt: as §1

[6] = TAFIa du plasma (normal plasma pool diluted 1/20, thrombine-thrombomoduline-CaCl2 activation), AAFR 5 mM (0,25 mM), 382 nm

SMILES | DO de départ [1] | DO finale [1] | Delta DO [1] | DO de départ [2] | DO finale [2] | Delta DO [2] | hydrolyse par le TAFI activé [2] | other results
Cc1cccc(N=NC(=O)N[C@@H](Cc2ccccc2)C(=O)N[C@@H](CCCNC(=N)N)C(=O)O)c1C [2,3 DMPAFFR, 2,3-dimethylphenylazoformylphenylalanylarginine] | 0.318 | 0.089 | 0.229 | – | – | – | – | –
Cc1ccc(C)c(N=NC(=O)N[C@@H](Cc2ccccc2)C(=O)N[C@@H](CCCNC(=N)N)C(=O)O)c1 [2,5 DMPAFFR, 2,5-dimethylphenylazoformylphenylalanylarginine] | 0.973 | 0.131 | 0.842 | – | – | – | – | –
COc1ccc(N=NC(=O)N[C@@H](Cc2ccccc2)C(=O)N[C@@H](CCCCN)C(=O)O)cc1 [MxPAFFK, 4-methoxyphenylazoformylphenylalanyllysine] | 0.973 | 0.131 | 0.842 | 1.397 | 0.849 | 0.548 | actif | –
Cc1ccc(N=NC(=O)N[C@@H](Cc2ccccc2)C(=O)N[C@@H](CCCNC(=N)N)C(=O)O)c(C)c1 [2,4 DMPAFFR, 2,4-dimethylphenylazoformylphenylalanylarginine] | 1.004 | 0.087 | 0.917 | – | – | – | – | –
COc1ccc(N=NC(=O)N[C@@H](Cc2ccccc2)C(=O)N[C@@H](CCCNC(=N)N)C(=O)O)cc1 [MxPAAFR, 4-methoxyphenylazoformylphenylalanylarginine] | – | – | – | – | – | – | – | Δ DO mesuré ([3]; concentration en TAFIa 0 µg/ml): 0.168; Δ DO mesuré ([3]; concentration en TAFIa 1.63 µg/ml): 0.217; Δ DO mesuré ([3]; concentration en TAFIa 3.25 µg/ml): 0.273; Δ DO mesuré ([3]; concentration en TAFIa 6.5 µg/ml): 0.399; Δ DO mesuré ([3]; concentration en TAFIa 13 µg/ml): 0.624; Δ DO mesuré ([3]; concentration en TAFIa 26 µg/ml): 0.995
COc1ccc(N=NC(=O)N[C@@H](CCCNC(=N)N)C(=O)O)cc1 [AAFR, 4-MethoxyphenylAzoformylarginine] | – | – | – | 1.356 | 1.300 | 0.056 | n'hydrolyse pas | Delta DO [4]: 0.608; DO de départ [5, 6]: 1.730; DO finale [5, 6]: 1.681; Delta DO [5, 6]: 0.049; hydrolyse par le TAFI activé ([5]; conclusion in words, plasma TAFIa): n'hydrolyse pas
